Reference: ChEMBL document CHEMBL4673334, “In Vivo Biological Evaluation of a Synthetic Royleanone Derivative as a Promising Fast-Acting Trypanocidal Agent by Inducing Mitochondrial-Dependent Necrosis” (J Nat Prod, 2020)
Calls of active or inactive are those of the source. The rule behind the calls is not given here.

Legend:
Trypanosoma cruzi [1] = assay: Antitrypanosomal activity against Trypanosoma cruzi MHOM/Pe/2011/Arequipa(DTU V) epimastigote form assessed as parasite growth inhibition incubated for 48 hrs by resazurin dye based assay; format: functional, organism-based
Trypanosoma cruzi [2] = assay: Antitrypanosomal activity against Trypanosoma cruzi MHOM/Pe/2011/Arequipa(DTU V) amastigote form infected in Vero cells assessed as parasite growth inhibition incubated for 72 hrs by Giemsa-staining based assay; format: functional, organism-based
Trypanosoma cruzi [3] = assay: Antitrypanosomal activity against Trypanosoma cruzi MHOM/Pe/2011/Arequipa(DTU V) epimastigote form assessed as disruption of pyruvate level at IC25 concentration incubated for 72 hrs by NMR spectrometric analysis; format: functional, organism-based
[4] = Toxicity in BALB/c mouse infected with Trypanosomal Trypanosoma cruzi MHOM/Pe/2011/Arequipa(DTU V) assessed as effect on ALT/GPT level at 20 mg/kg, po administered for 5 days starting at 100 days post infection and measured after 2 days post treatment; format: organism-based; details: in vivo, 120 h, time 5 day
[5] = Toxicity in BALB/c mouse infected with Trypanosomal Trypanosoma cruzi MHOM/Pe/2011/Arequipa(DTU V) assessed as effect on total bilirubin level at 20 mg/kg, po administered for 5 days starting at 9 days post infection and measured after 2 days post treatment; format: organism-based; details: in vivo, 120 h, time 5 day
[6] = Selectivity index, ratio of IC50 for cytotoxicity against African green monkey Vero cells to IC50 for antitrypanosomal activity against Trypanosoma cruzi MHOM/Pe/2011/Arequipa(DTU V) blood stream trypomastigote form; format: toxicity, cell-based; details: read-out: Ratio IC50
Trypanosoma cruzi [7] = assay: (§1) Antitrypanosomal activity against Trypanosoma cruzi MHOM/Pe/2011/Arequipa(DTU V) amastigote form infected in BALB/c mouse assessed as parasite free organ tissue ratio at 20 mg/kg, po administered for 5 days starting at 9 days post infection and measured up to 145 days post infection by PCR analysis relative to control; format: functional; details: time 5 day
Trypanosoma cruzi [8] = assay: Antitrypanosomal activity against Trypanosoma cruzi MHOM/Pe/2011/Arequipa(DTU V) epimastigote form assessed as disruption of succinic acid level at IC25 concentration incubated for 72 hrs by NMR spectrometric analysis; format: functional, organism-based
Trypanosoma cruzi [9] = assay: Antitrypanosomal activity against Trypanosoma cruzi IRHOD/CO/2008/SN3 (DTU I) blood stream trypomastigote form assessed as parasite growth inhibition incubated for 24 hrs by resazurin dye based assay; format: functional, organism-based
[10] = Selectivity index, ratio of IC50 for cytotoxicity against African green monkey Vero cells to IC50 for antitrypanosomal activity against Trypanosoma cruzi TINF/CH/1956/Tulahuen (DTU VI) blood stream trypomastigote form; format: toxicity, cell-based; details: read-out: Ratio IC50
[11] = Toxicity in BALB/c mouse infected with Trypanosomal Trypanosoma cruzi MHOM/Pe/2011/Arequipa(DTU V) assessed as effect on uric acid level at 20 mg/kg, po administered for 5 days starting at 9 days post infection and measured after 2 days post treatment; format: organism-based; details: in vivo, 120 h, time 5 day
Trypanosoma cruzi [12] = assay: Antitrypanosomal activity against Trypanosoma cruzi TINF/CH/1956/Tulahuen (DTU VI) amastigote form infected in Vero cells assessed as parasite growth inhibition incubated for 72 hrs by Giemsa-staining based assay; format: functional, organism-based
[13] = target: Superoxide dismutase [Cu-Zn] (Homo sapiens, UniProt P00441); assay: Inhibition of human erythrocytes CuZn-SOD by UV-VIS spectrophotometric method; design: species or system Erythrocyte
Chain of Superoxide dismutase [Cu-Zn] (P00441 whole entry): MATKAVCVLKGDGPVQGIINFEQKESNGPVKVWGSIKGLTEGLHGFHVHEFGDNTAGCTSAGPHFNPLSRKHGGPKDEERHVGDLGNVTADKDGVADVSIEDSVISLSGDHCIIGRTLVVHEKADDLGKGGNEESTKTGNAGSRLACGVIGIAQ

Trypanosoma cruzi [14] = assay: Antitrypanosomal activity against Trypanosoma cruzi MHOM/Pe/2011/Arequipa(DTU V) amastigote form infected in BALB/c mouse assessed as reactivation parasitaemia at 20 mg/kg, po administered for 5 days starting at 100 days post infection and measured up to 145 days post infection relative to control; format: functional
Trypanosoma cruzi [15] = assay: Antitrypanosomal activity against Trypanosoma cruzi TINF/CH/1956/Tulahuen (DTU VI) blood stream trypomastigote form assessed as parasite growth inhibition incubated for 24 hrs by resazurin dye based assay; format: functional, organism-based
Trypanosoma cruzi [16] = assay: Antitrypanosomal activity against Trypanosoma cruzi MHOM/Pe/2011/Arequipa(DTU V) epimastigote form assessed as disruption of glycerol level at IC25 concentration incubated for 72 hrs by NMR spectrometric analysis; format: functional, organism-based
Trypanosoma cruzi [17] = assay: Antitrypanosomal activity against Trypanosoma cruzi MHOM/Pe/2011/Arequipa(DTU V) amastigote form infected in Vero cells assessed as parasite growth inhibition at 50 uM incubated for 72 hrs by Giemsa-staining based assay relative to control; format: functional
[18] = Toxicity in BALB/c mouse infected with Trypanosomal Trypanosoma cruzi MHOM/Pe/2011/Arequipa(DTU V) assessed as reduction in weight at 20 mg/kg, po administered for 5 days starting at 100 days post infection and measured up to 145 days post infection; format: organism-based; details: in vivo, 120 h, time 5 day
[19] = Selectivity index, ratio of IC50 for cytotoxicity against African green monkey Vero cells to IC50 for antitrypanosomal activity against Trypanosoma cruzi MHOM/Pe/2011/Arequipa(DTU V) amastigote form infected in Vero cells; format: toxicity, cell-based; details: read-out: Ratio IC50
Trypanosoma cruzi [20] = assay: Antitrypanosomal activity against Trypanosoma cruzi IRHOD/CO/2008/SN3 (DTU I) epimastigote form assessed as parasite growth inhibition incubated for 48 hrs by resazurin dye based assay; format: functional, organism-based
Trypanosoma cruzi [21] = assay: Antitrypanosomal activity against Trypanosoma cruzi MHOM/Pe/2011/Arequipa(DTU V) epimastigote form assessed as disruption of D-lactate level at IC25 concentration incubated for 72 hrs by NMR spectrometric analysis; format: functional, organism-based
Trypanosoma cruzi [22] = assay: Antitrypanosomal activity against Trypanosoma cruzi MHOM/Pe/2011/Arequipa(DTU V) amastigote form infected in BALB/c mouse assessed as reactivation parasitaemia at 20 mg/kg, po administered for 5 days starting at 9 days post infection and measured up to 145 days post infection relative to control; format: functional
[23] = Selectivity index, ratio of IC50 for cytotoxicity against African green monkey Vero cells to IC50 for antitrypanosomal activity against Trypanosoma cruzi TINF/CH/1956/Tulahuen (DTU VI) amastigote form infected in Vero cells; format: toxicity, cell-based; details: read-out: Ratio IC50
Trypanosoma cruzi [24] = assay: as §1, with “100” for “9”; format: functional; details: time 5 day
[25] = Toxicity in BALB/c mouse infected with Trypanosomal Trypanosoma cruzi MHOM/Pe/2011/Arequipa(DTU V) assessed as effect on total bilirubin level at 20 mg/kg, po administered for 5 days starting at 100 days post infection and measured after 2 days post treatment; format: organism-based; details: in vivo, 120 h, time 5 day
[26] = Selectivity index, ratio of IC50 for cytotoxicity against African green monkey Vero cells to IC50 for antitrypanosomal activity against Trypanosoma cruzi IRHOD/CO/2008/SN3 (DTU I) epimastigote form; format: toxicity, cell-based; details: read-out: Ratio IC50
[27] = Toxicity in BALB/c mouse infected with Trypanosomal Trypanosoma cruzi MHOM/Pe/2011/Arequipa(DTU V) assessed as effect on CK-MB level at 20 mg/kg, po administered for 5 days starting at 9 days post infection and measured after 2 days post treatment; format: organism-based; details: in vivo, 120 h, time 5 day
[28] = Toxicity in BALB/c mouse infected with Trypanosomal Trypanosoma cruzi MHOM/Pe/2011/Arequipa(DTU V) assessed as effect on LDH level at 20 mg/kg, po administered for 5 days starting at 100 days post infection and measured after 2 days post treatment; format: organism-based; details: in vivo, 120 h, time 5 day
[29] = Toxicity in BALB/c mouse infected with Trypanosomal Trypanosoma cruzi MHOM/Pe/2011/Arequipa(DTU V) assessed as effect on ALT/GPT level at 20 mg/kg, po administered for 5 days starting at 9 days post infection and measured after 2 days post treatment; format: organism-based; details: in vivo, 120 h, time 5 day

Structure (SMILES) | IC50 (Trypanosoma cruzi [1]) [µM] | IC50 (Trypanosoma cruzi [2]) [µM] | Activity (Trypanosoma cruzi [3]) | Activity [4] | Activity [5] | selectivity ratio [6] | Activity (Trypanosoma cruzi [7]) [%] | Activity (Trypanosoma cruzi [8]) | IC50 (Trypanosoma cruzi [9]) [µM] | selectivity ratio [10] | Activity [11] | IC50 (Trypanosoma cruzi [12]) [µM] | IC50 [13] [µM] | IC50 (Trypanosoma cruzi [15]) [µM] | Activity (Trypanosoma cruzi [16]) | inhibition at 50 µM (Trypanosoma cruzi [17]) [%] | Activity [18] | selectivity ratio [19] | IC50 (Trypanosoma cruzi [20]) [µM] | Activity (Trypanosoma cruzi [21]) | other results
COC(=O)[C@]1(C)CCC[C@]2(C)C3=C(C=C[C@@H]12)C(=O)C(C(C)C)=CC3=O | 1.4 | 4.8 | inactive | Non-Toxic | Non-Toxic | > 40 | 57.1 | Active | 1.8 | > 40 | Non-Toxic | 7.1 | > 100 | 1.6 | Active | 100 | Non-Toxic | > 40 | 1.6 | inactive | Activity (Trypanosoma cruzi [14]; time 5 day): 52%; Activity (Trypanosoma cruzi [22]; time 5 day): 52%; selectivity ratio [23]: > 40; Activity (Trypanosoma cruzi [24]): 57.1%; Activity [25]: Non-Toxic; selectivity ratio [26]: > 15; Activity [27]: Non-Toxic; Activity [28]: Non-Toxic; Activity [29]: Non-Toxic
CC(C)c1cc(C=O)c([C@@]2(C)CCCC(C)(C)C2=O)cc1O | 18.5 | 9.2 | inactive | Non-Toxic | Non-Toxic | > 40 | 28.5 | Active | 8.7 | > 40 | Non-Toxic | 8.8 | > 100 | 9.3 | Active | 100 | Non-Toxic | > 40 | 12.5 | inactive | Activity (Trypanosoma cruzi [14]; time 5.0 day): Active; Activity (Trypanosoma cruzi [22]; time 5.0 day): Active; selectivity ratio [23]: > 40; Activity (Trypanosoma cruzi [24]): 42.9%; Activity [25]: Non-Toxic; selectivity ratio [26]: > 15; Activity [27]: Non-Toxic; Activity [28]: Non-Toxic; Activity [29]: Non-Toxic
